According to ChEMBL document CHEMBL3232809, “Synthesis, antibiotic activity and structure-activity relationship study of some 3-enaminetetramic acids” (2014):
In brackets after ≈: the same amount, converted by molar mass.

Experiments:
Format in all cases: functional
Staphylococcus aureus [1] = experiment: Antimicrobial activity against methicillin-resistant Staphylococcus aureus
Enterococcus faecium = experiment: Antimicrobial activity against vancomycin-resistant Enterococcus faecium
Staphylococcus aureus [2] = experiment: Antimicrobial activity against vancomycin-susceptible Staphylococcus aureus ATCC 25923
Escherichia coli [3] = experiment: Antimicrobial activity against Escherichia coli 50
Escherichia coli [4] = experiment: Antimicrobial activity against Escherichia coli ATCC 25922
Staphylococcus aureus [5] = experiment: Antimicrobial activity against methicillin-sensitive Staphylococcus aureus ATCC 13709
Streptococcus pneumoniae [6] = experiment: Antimicrobial activity against penicillin- and erythromycin-resistant Streptococcus pneumoniae
Haemophilus influenzae [7] = experiment: Antimicrobial activity against Haemophilus influenzae ATCC 31517 MMSA
Enterococcus faecalis = experiment: Antimicrobial activity against vancomycin-susceptible Enterococcus faecalis ATCC 29212
Escherichia coli [8] = experiment: Antimicrobial activity against Escherichia coli 49
Haemophilus influenzae [9] = experiment: Antimicrobial activity against LS2 Efflux knock-out Haemophilus influenzae
Streptococcus pneumoniae [10] = experiment: Antimicrobial activity against penicillin- and erythromycin-resistant Streptococcus pneumoniae in presence of 2.5% horse blood
Streptococcus pneumoniae [11] = experiment: Antimicrobial activity against erythromycin-susceptible Streptococcus pneumoniae ATCC 49619
Pseudomonas aeruginosa = experiment: Antimicrobial activity against Pseudomonas aeruginosa ATCC 27853
Staphylococcus aureus [12] = experiment: Antimicrobial activity against Staphylococcus aureus Oxford

SMILES	MIC (Staphylococcus aureus [1]) [µg/mL]	MIC (Enterococcus faecium) [µg/mL]	MIC (Staphylococcus aureus [2]) [µg/mL]	MIC (Escherichia coli [3]) [µg/mL]	MIC (Escherichia coli [4]) [µg/mL]	MIC (Staphylococcus aureus [5]) [µg/mL]	MIC (Streptococcus pneumoniae [6]) [µg/mL]	MIC (Haemophilus influenzae [7]) [µg/mL]	MIC (Enterococcus faecalis) [µg/mL]	MIC (Escherichia coli [8]) [µg/mL]	MIC (Haemophilus influenzae [9]) [µg/mL]	MIC (Streptococcus pneumoniae [10]) [µg/mL]	MIC (Streptococcus pneumoniae [11]) [µg/mL]	MIC (Pseudomonas aeruginosa) [µg/mL]	MIC (Staphylococcus aureus [12]) [µg/mL]
CCCCCCCCCCCCC/C(NCCCNC(=O)COCC(=O)O)=C1\C(=O)CN(CCCCCC)C1=O	> 64	16 (≈ 28.3 µM)	> 64	> 32	> 32	> 64	16 (≈ 28.3 µM)	> 64	16 (≈ 28.3 µM)	> 32	> 64	64	8 (≈ 14.1 µM)	> 32	> 64
COC(=O)[C@]12CO[C@H](C(C)(C)C)N1C(=O)/C(=C(/CCCOc1ccccc1)NCCN1CCCCC1)C2=O	> 32	> 32	> 32	> 32	> 32	> 32	> 32	> 32	> 32	> 32	> 32	> 32	> 32	> 32	> 32
C/C(NCCOc1ccccc1)=C1\C(=O)N2[C@H](C(C)(C)C)OC[C@@]2(C)C1=O (racemic)	8 (≈ 21.5 µM)	1 (≈ 2.68 µM)	4 (≈ 10.7 µM)	> 32	> 32	8 (≈ 21.5 µM)	1 (≈ 2.68 µM)	4 (≈ 10.7 µM)	4 (≈ 10.7 µM)	> 32	< 0.06	2	1 (≈ 2.68 µM)	> 32	8 (≈ 21.5 µM)
CCCCCCCCCC/C(NCCCOC(C)C)=C1\C(=O)C(CCSC)N(C(C)=O)C1=O (stereo not given)	> 32	> 32	> 32	> 32	> 32	> 32	> 32	> 32	> 32	> 32	> 32	> 32	> 32	> 32	> 32
CSCCC1C(=O)/C(=C(\CC23CC4CC(CC(C4)C2)C3)NCC(C)(C)CN(C)C)C(=O)N1C(C)=O (stereo not given)	> 32	> 32	> 32	> 32	> 32	> 32	> 32	> 32	> 32	> 32	> 32	> 32	> 32	> 32	> 32
CCCC(=O)N1CC(=O)/C(=C(\CC23CC4CC(CC(C4)C2)C3)NCCCN2CCCCC2C)C1=O (stereo not given)	64 (≈ 132 µM)	64 (≈ 132 µM)	64 (≈ 132 µM)	> 32	> 32	64 (≈ 132 µM)	32 (≈ 66.2 µM)	> 64	64 (≈ 132 µM)	> 32	32 (≈ 66.2 µM)	32	32 (≈ 66.2 µM)	> 32	64 (≈ 132 µM)
CCCCCC/C(Nc1ccc(N2CCOCC2)cc1)=C1\C(=O)CNC1=O	> 32	> 32	> 32	> 32	> 32	> 32	> 32	> 32	> 32	> 32	> 32	> 32	> 32	> 32	> 32
COC(=O)[C@@]12CO[C@@H](C(C)(C)C)N1C(=O)/C(=C(\C)Nc1ccccc1)C2=O	> 32	> 32	> 32	> 32	> 32	> 32	> 32	> 32	> 32	> 32	> 32	> 32	> 32	> 32	> 32
CCCCCCC(=O)N1CC(=O)/C(=C(\CCCCCC)NC2CCCCC2)C1=O	> 32	> 32	> 32	> 32	> 32	> 32	> 32	> 32	> 32	> 32	> 32	> 32	> 32	> 32	> 32
CCCCCCCCCCC/C(NCCCOC(C)C)=C1\C(=O)[C@@H]2CCCC(=O)N2C1=O	> 64	> 64	> 64	> 32	> 32	> 64	16 (≈ 35.7 µM)	> 64	> 64	> 32	4 (≈ 8.92 µM)	> 64	> 64	> 32	> 64
